The target of data set [1] is glyceraldehyde-3-phosphate dehydrogenase (GAPDH) (Homo sapiens, UniProt P04406). The note with it: glycolytic GAPDH; cited from earlier work.
Data set [2] concerns Anabaena PCC7120. Briefly: Biodegradation in BG-11 medium in the presence of Anabaena cells (LC-MS). The note with it: 0.1 mM, in the presence of cyanobacteria. As to the method:
Ornidazole (molecular mass 220 and 222 due to two isotopes of chlorine) or degradation products were sought by LC-MS. The chromatograms of samples from the first and fourth days are shown in FIG. 7B and FIG. 7C, respectively. The retention time and molecular mass of the isolated molecules are designated.
The concentrations of Ornidazole and its degradation product in the medium were determined during the growth of the cyanobacterium Anabaena PCC7120 and in media lacking cyanobacteria in the dark or under illumination. Ornidazole at 0.1 mM concentration was added to three growth tubes containing BG-11 medium: one growth tube was kept in the dark, the second under light conditions of 60 μmol photons m^−2 sec^−1 and the third tube, to which Anabaena cells were added, was also kept under similar light conditions. Samples from each tube were taken every day, separated on a C18 reverse phase HPLC column, and Ornidazole (molecular mass 220 and 222 due to two isotopes of chlorine) or degradation products were sought by LC-MS. A degradation product of molecular mass 184, identified as C7H9N3O3, was found in all three tubes.

For data set [3], the system named is Anabaena PCC7120. Briefly: Net O2 exchange (photosynthesis and respiration), O2 electrode. In kind it is cell-based, Anabaena PCC7120 (Cyanobacteria). As to the method: (§1) The cyanobacterium Anabaena PCC7120 was grown in BG-11 medium as was previously described (Marcus Y, et al., 2005. J Bacteriol 187, 4222-4228). The green eukaryotic alga Dunaliella salina was grown on a medium described by Ben-Amotz and Avron (Ben-Amotz A and Avron M 1983. Plant Physiol 72, 593-597), under 20 μmol photons m^−2 sec^−1 at 30° C. The aquatic plant Lemna was collected from an open pond at the Botanical garden of Tel Aviv University. Seedlings of Avena sterilis were grown in pots in a greenhouse. The marine diatom Phaeodactylum tricornutum was grown as described in Haimovich-Dayan et al. (Haimovich-Dayan M. et al. 2012. New Phytol 195:177-185).
(§2) The rate of net O2 exchange was determined using a Clark-type O2 electrode (Rank Brothers Ltd, UK). Fluorescent measurements (quantum yield, photochemical and non photochemical quenching) were determined using a modulated fluorometer (PAM, Walz, Germany) as described by Schreiber et al. (Schreiber U et al., 1986. fluorometer. Photosynth Res 10, 51-62) and Snir et al. (Snir A, et al., 2006. Photosynth Res 90, 233-242).
(§3) The algae Anabaena PCC7120 (Cyanobacteria), Dunaliella salina (Chlorophyta) and Phaeodactylum tricornutum (Diatoms) were each grown in its suitable medium as described hereinabove towards the mid logarithmic phase. 1 mM Ornidazole was then added to the medium for 5 min, and respiration and photosynthesis were measured for at least 10 min.
The effect of Ornidazole on the rate of photosynthesis of Anabaena was also determined. The algae were grown under various light intensities and saturating inorganic carbon (Ci) concentration, or under various Ci concentrations and saturating irradiance.

In data set [4] the test system is Phaeodactylum tricornutum. Described as above. In kind it is cell-based, Phaeodactylum tricornutum (Diatoms). As to the method: as §1, §2, §3
[5] abbreviates: Anabaena PCC7120, 1 mM Ornidazole added for 5 min.
Setting [6] is: Phaeodactylum tricornutum, 1 mM Ornidazole added for 5 min.

SMILES strings stand for the structures.

glyceraldehyde-3-phosphate dehydrogenase (GAPDH), sequence (P04406 whole entry, species assumed): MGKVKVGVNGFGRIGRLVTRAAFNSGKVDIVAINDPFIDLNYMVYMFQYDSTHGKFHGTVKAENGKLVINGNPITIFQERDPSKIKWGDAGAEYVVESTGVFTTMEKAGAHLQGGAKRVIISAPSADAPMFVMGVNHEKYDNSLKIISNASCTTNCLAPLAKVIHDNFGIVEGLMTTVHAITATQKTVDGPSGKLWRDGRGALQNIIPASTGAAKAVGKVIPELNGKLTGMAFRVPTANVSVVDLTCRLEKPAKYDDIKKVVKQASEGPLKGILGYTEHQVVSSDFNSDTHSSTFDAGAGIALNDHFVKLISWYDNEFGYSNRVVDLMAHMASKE

As for `Cc1ncc([N+](=O)[O-])n1CC(O)CCl` (stereo not shown) [Ornidazole, 1-chloro-3-(2-methyl-5-nitro-1H-imidazol-1-yl)propan-2-ol], in data set [1], the “inhibition of enzyme activity” value is recorded as “inhibits the activity”. Besides, the “Ornidazole remaining, of its initial concentration” value in the data set with Anabaena PCC7120 [2] (after four days of incubation) was determined as 10%. The “Ornidazole detection in medium” value in the data set on Anabaena PCC7120 [2] (after seven days) is on record as “could no longer be detected”. Also, the Photosynthesis is −3.7 μmol O2 mg^−1 chl h^−1 in the data set on Anabaena PCC7120 [3] (setting [5]) and −4.33 μmol O2 mg^−1 chl h^−1 in data set [4] (setting [6]). Besides, the Respiration with Anabaena PCC7120 [3] (setting [5]) is −26.5 μmol O2 mg^−1 chl h^−1; in data set [4] (setting [6]), −67.14 μmol O2 mg^−1 chl h^−1. For the same compound, the inhibition at 1000 µM in the data set on Anabaena PCC7120 [3] (Anabaena, 1 mM, read-out: inhibition of respiration rate) is 30 to 35%. Further, the effect on photosynthesis result in the data set with Anabaena PCC7120 [3] (Anabaena, higher concentrations (than 1 mM) or longer incubation time) was “abolished photosynthesis”; in data set [4] (Phaeodactylum, higher concentrations (than 1 mM) or longer incubation time), “abolished photosynthesis”. In addition, the results for the “effect on photosynthetic rate” value in the data set with Anabaena PCC7120 [3] (limiting irradiance) and in the data set with Anabaena PCC7120 [3] (saturating irradiance at any Ci concentration) were “inhibited the photosynthetic rate to a lesser extent” and “concentration-dependent decrease in the photosynthetic rate”, respectively. The “effect on respiration rate” value in data set [4] (Phaeodactylum, 1 mM) is reported as “stimulated the respiration rate”.

The values above are taken from patent publication US9237750B2, “Ornidazole and related compounds for use as herbicides” (RAMOT AT TEL-AVIV UNIVERSITY LTD., priority 2012, dated 2016).
